The structures appear in SMILES notation.

As a reminder, the EC50 is the concentration that produces a half-maximal response.

This assay has as its target T1, HIS-tagged RORγ-LBD protein (Homo sapiens, UniProt P51449).
T1 construct: made in house; host or cells: SF9 cells, baculovirus expression system; the lysate was used
T1 sequence (P51449 269-508 limits assumed): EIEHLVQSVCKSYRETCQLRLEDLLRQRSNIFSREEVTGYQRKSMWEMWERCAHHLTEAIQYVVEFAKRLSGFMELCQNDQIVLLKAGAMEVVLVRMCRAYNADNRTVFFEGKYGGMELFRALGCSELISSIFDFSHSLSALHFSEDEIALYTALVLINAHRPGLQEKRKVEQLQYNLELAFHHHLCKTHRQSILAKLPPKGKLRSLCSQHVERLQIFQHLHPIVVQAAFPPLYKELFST
In words: RORγ-Ligand Binding Domain (LBD) TR-FRET Assay. In kind it is biochemical. The note with it: for TR-FRET Assay Max Response: upper plateau of 4-parameter fit, signal in the absence of ursolic acid or test compound set as 100; for EC50: with 2 μM RORγ antagonist ursolic acid, biotinylated SRC1 LXXLL peptide, ratio 665 nm/615 nm. The procedure:
Exemplary compounds from the above Examples were tested for ability to increase RORγ activity using (i) a RORγ-Ligand Binding Domain (LBD) TR-FRET Assay, and (ii) a Gal4-RORγ Luciferase Reporter Assay in HEK-293T Cells. Assay procedures and results are described below.
Part I—Procedures for RORγ-Ligand Binding Domain TR-FRET Assay
HIS-tagged RORγ-LBD protein was expressed in SF9 cells using a baculovirus expression system. The lysate was diluted in assay buffer (50 mM Tris pH 7.0, 50 mM KCl, 1 mM EDTA, 0.1 mM DTT, 0.01% BSA) to obtain RORγ-LBD final concentration of −3 nM in a 384-well assay plate (need to titrate for each batch of protein).
A stock of biotinylated-LXXLL peptide from coactivator SRC1 (Biotin-[…]) was prepared in assay buffer and added to each well (200 nM final concentration). A solution of Europium tagged anti-HIS antibody (0.6 nM final concentration) and APC-conjugated streptavidin (30 nM final concentration) were also added to each well. RORγ antagonist ursolic acid was also included at a final concentration of 2 μM. Compounds were diluted in DMSO and further diluted in assay buffer with a final DMSO concentration at 1%.
The final assay mixture was incubated overnight at 4° C. or 2 hours at room temperature, and the fluorescence signal was measured on an Envision plate reader: (Excitation filter=340 nm; APC emission=665 nm; Europium emission=615 nm; dichroic mirror=D400/D630; delay time=100 μs, integration time=200 μs). 50% Effective concentration (EC50) values for test compounds were calculated from the quotient of the fluorescence signal at 665 nm divided by the fluorescence signal at 615 nm. The quotient of the fluorescence signals in the absence of ursolic acid or test compound is set as 100. Max Response is defined as the upper plateau in the signal as determined by line-fit using a 4-parameter logistic model in PRISM (GraphPad).
(In general: Time-resolved FRET reads energy transfer from a long-lived donor to a nearby acceptor.)

Take `CCC(c1cccc(OCc2c(F)cccc2Cl)c1)S(=O)(=O)c1ccc(Cl)cc1` (stereo not shown): the “TR-FRET Assay Max Response” value is reported as “*** (The symbol “***” indicates a value in the range of greater than 150 to 200)” and the EC50 was below 0.5 µM.

On to `CCN(c1cccc(Cn2ncc3ccccc32)c1)S(=O)(=O)c1cccc(C(F)(F)F)c1`, for which the “TR-FRET Assay Max Response” value was “** (The symbol “**” indicates a value in the range of greater than 90 to 150)” and the EC50 was above 10 µM. `CCN(c1cccc(CNCc2ccccc2Cl)c1)S(=O)(=O)c1cccc(C(F)(F)F)c1`: the “TR-FRET Assay Max Response” value is given as “** (The symbol “**” indicates a value in the range of greater than 90 to 150)” and the EC50 was above 10 µM. Regarding `CCC(c1ccc(OCc2ccccc2)cc1)S(=O)(=O)c1ccc(Cl)cc1` (stereo not shown), the “TR-FRET Assay Max Response” value is reported as “*** (The symbol “***” indicates a value in the range of greater than 150 to 200)” and the EC50 was 0.5 to 5 µM. For `CCC(c1ccc(OCc2ccccc2)cc1)S(=O)(=O)c1cccc(C(F)(F)F)c1` (stereo not shown) the same measures were “** (The symbol “**” indicates a value in the range of greater than 90 to 150)” and 0.5 to 5 µM. Taken in the same sequence, the figures for `CCN(c1cccc(COc2ccccc2Cl)c1)S(=O)(=O)c1cccc(C(F)(F)F)c1` were “** (The symbol “**” indicates a value in the range of greater than 90 to 150)” and 0.5 to 5 µM. Taken in the same sequence, the figures for `CCN(c1cccc(OCc2cc(C(F)(F)F)ccc2Cl)c1)S(=O)(=O)c1cccc(C(F)(F)F)c1` were “*** (The symbol “***” indicates a value in the range of greater than 150 to 200)” and above 10 µM. In the case of `CCN(c1cccc(OC2Cc3ccccc3C2)c1)S(=O)(=O)c1cccc(C(F)(F)F)c1`, the “TR-FRET Assay Max Response” value was “*** (The symbol “***” indicates a value in the range of greater than 150 to 200)” and the EC50 lay within 0.5 to 5 µM. Taken in the same sequence, the figures for `CCN(c1cccc(OCC2CCCCC2)c1)S(=O)(=O)c1cccc(C(F)(F)F)c1` were “**** (The symbol “****” indicates a value greater than 200)” and below 0.5 µM. Taken in the same sequence, the figures for `CCN(c1cccc(C(C)Oc2c(F)cccc2Cl)c1)S(=O)(=O)c1cccc(C(F)(F)F)c1` (stereo not shown) were “** (The symbol “**” indicates a value in the range of greater than 90 to 150)” and below 0.5 µM. For `CCN(c1cccc(OC2CCc3ccccc32)c1)S(=O)(=O)c1cccc(C(F)(F)F)c1` (stereo not shown) the same measures were “**** (The symbol “****” indicates a value greater than 200)” and below 0.5 µM. For `CCN(c1cccc(CNc2ccccc2Cl)c1)S(=O)(=O)c1cccc(C(F)(F)F)c1`, the “TR-FRET Assay Max Response” value is “** (The symbol “**” indicates a value in the range of greater than 90 to 150)” and the EC50 is above 10 µM. For `CCN(c1cccc(OC(C)c2c(F)cccc2Cl)c1)S(=O)(=O)c1cccc(C(F)(F)F)c1` (stereo not shown), the EC50 is above 10 µM. In the case of `CCN(c1cccc(C(C)Oc2ccccc2Cl)c1)S(=O)(=O)c1cccc(C(F)(F)F)c1` (stereo not shown), the “TR-FRET Assay Max Response” value is “** (The symbol “**” indicates a value in the range of greater than 90 to 150)” and the EC50 is above 10 µM. `CCN(c1cccc(OCc2ccccc2F)c1)S(=O)(=O)c1cccc(C(F)(F)F)c1`: the “TR-FRET Assay Max Response” value is reported as “*** (The symbol “***” indicates a value in the range of greater than 150 to 200)” and the EC50 is below 0.5 µM. For `CCN(c1cccc(COC2(C)CCCCC2)c1)S(=O)(=O)c1cccc(C(F)(F)F)c1` the same measures were “** (The symbol “**” indicates a value in the range of greater than 90 to 150)” and below 0.5 µM.

Take `CCN(c1cccc(Cn2c(=O)oc3ccccc32)c1)S(=O)(=O)c1cccc(C(F)(F)F)c1`: the “TR-FRET Assay Max Response” value is on record as “** (The symbol “**” indicates a value in the range of greater than 90 to 150)” and the concentration for a half-maximal effect (EC50) was above 10 µM. Taken in the same sequence, the figures for `CCN(c1cccc(OCc2ccc(Cl)cc2Cl)c1)S(=O)(=O)c1cccc(C(F)(F)F)c1` were “** (The symbol “**” indicates a value in the range of greater than 90 to 150)” and above 10 µM. As for `CCC(c1cccc(OCc2c(F)cccc2Cl)c1)S(=O)(=O)c1cccc(C(F)(F)F)c1` (stereo not shown), the “TR-FRET Assay Max Response” value is recorded as “*** (The symbol “***” indicates a value in the range of greater than 150 to 200)” and the concentration for a half-maximal effect (EC50) is below 0.5 µM. For `CCN(c1cccc(OCCc2ccccc2)c1)S(=O)(=O)c1cccc(C(F)(F)F)c1` the same measures were “** (The symbol “**” indicates a value in the range of greater than 90 to 150)” and above 10 µM. As for `CCN(c1cccc(OCc2ccccc2)c1)S(=O)(=O)c1cccc(C(F)(F)F)c1`, the “TR-FRET Assay Max Response” value is “*** (The symbol “***” indicates a value in the range of greater than 150 to 200)” and the EC50 lay within 0.5 to 5 µM. Regarding `CCN(Cc1ccccc1Cl)c1cccc(N(CC)S(=O)(=O)c2cccc(C(F)(F)F)c2)c1`, the “TR-FRET Assay Max Response” value is given as “** (The symbol “**” indicates a value in the range of greater than 90 to 150)” and the EC50 is above 10 µM. For `CCC(c1cccc(OCc2ccccc2)c1)S(=O)(=O)c1ccc(Cl)cc1` (stereo not shown) the same measures were “* (The symbol “*” indicates a value in the range of 70 to 90)” and above 10 µM. As for `CCN(c1cccc(COC2CCCCC2)c1)S(=O)(=O)c1cccc(C(F)(F)F)c1`, the “TR-FRET Assay Max Response” value is listed as “** (The symbol “**” indicates a value in the range of greater than 90 to 150)” and the EC50 lay within 0.5 to 5 µM. `CCN(c1cccc(OCc2cccc(Cl)c2Cl)c1)S(=O)(=O)c1cccc(C(F)(F)F)c1`: the EC50 was above 10 µM. Regarding `CCN(c1cccc(COc2c(F)cccc2Cl)c1)S(=O)(=O)c1cccc(C(F)(F)F)c1`, the “TR-FRET Assay Max Response” value is recorded as “** (The symbol “**” indicates a value in the range of greater than 90 to 150)” and the EC50 is below 0.5 µM.

`CCN(Cc1cccc(N(CC)S(=O)(=O)c2cccc(C(F)(F)F)c2)c1)c1ccccc1Cl`: the “TR-FRET Assay Max Response” value is “** (The symbol “**” indicates a value in the range of greater than 90 to 150)” and the EC50 fell in the range of 0.5 to 5 µM. For `CCOc1nn(CC)cc1S(=O)(=O)N(CC)c1cccc(OCc2ccccc2)c1`, the EC50 was above 10 µM. On the same count and under the same terms, the value for `CCN(c1cccc(OCc2cccc(C(F)(F)F)c2Cl)c1)S(=O)(=O)c1cccc(C(F)(F)F)c1` was above 10 µM.

In the case of `CCN(c1cccc(COC2CCCCC2C(F)(F)F)c1)S(=O)(=O)c1cccc(C(F)(F)F)c1` (stereo not shown), the “TR-FRET Assay Max Response” value is recorded as “** (The symbol “**” indicates a value in the range of greater than 90 to 150)” and the EC50 was in the range of 0.5 to 5 µM. `CCN(c1cccc(CN2CCc3ccccc32)c1)S(=O)(=O)c1cccc(C(F)(F)F)c1`: the “TR-FRET Assay Max Response” value is “** (The symbol “**” indicates a value in the range of greater than 90 to 150)” and the EC50 is 0.5 to 5 µM.

Turning to `CCN(c1cccc(CNC2CCCCC2)c1)S(=O)(=O)c1cccc(C(F)(F)F)c1`, the EC50 was above 10 µM. Take `CCN(c1cccc(OCc2c(F)cccc2Cl)c1)S(=O)(=O)c1cccc(C(F)(F)F)c1`: the “TR-FRET Assay Max Response” value was “**** (The symbol “****” indicates a value greater than 200)” and the EC50 was below 0.5 µM.

For the origin of these results see patent US10189777B2, “Benzenesulfonamido and related compounds for use as agonists of RORγ and the treatment of disease” (Lycera Corporation, priority 2014, dated 2019).
